Results: paper PMC5504357, “Antifungal Potential of Copper(II), Manganese(II) and Silver(I) 1,10-Phenanthroline Chelates Against Multidrug-Resistant Fungal Species Forming the Candida haemulonii Complex: Impact on the Planktonic and Biofilm Lifestyles” (Frontiers in Microbiology, 2017)
Where two headings read alike, the source gives them in different places.

Tests used:
Candida duobushaemulonii [1] = assay: Planktonic growth, broth microdilution (CLSI M27-A3), MIC; type: cell-based; conditions: for GM-MIC: geometric mean of three C. duobushaemulonii isolates; for MIC: planktonic, 48 h, 37°C
Description: (§1) Three clinical isolates of each species that form the C. haemulonii complex were used in this study: C. haemulonii (LIPCh4 from finger nail, LIPCh7 from toe nail, and LIPCh12 from blood), C. duobushaemulonii (LIPCh1 from finger nail, LIPCh6 from toe nail, and LIPCh8 from blood) and C. haemulonii var. vulnera (LIPCh5 from toe nail, LIPCh9 from urine, and LIPCh11 from blood) (Ramos et al., [2015]). The fungal isolates were identified by the automatized system VITEK® 2 and then characterized by ITS1-5.8S-ITS2 gene sequencing (Ramos et al., [2015]). Fungal cells were cultured in Sabouraud-dextrose medium under constant agitation (130 rpm) for 48 h at 37°C. Human lung adenocarcinoma A549 cells were maintained in culture flasks containing DMEM medium supplemented with 10% fetal bovine serum at 37°C in an atmosphere of 5% CO2.
(§2) Susceptibility profile assays were performed in accordance with the broth microdilution protocol described in the document M27-A3 published by the Clinical and Laboratory Standards Institutes (CLSI, [2008]). Samples of the test chelates were dissolved in DMSO (500 μL) and then serially diluted in a 96-well plate containing RPMI 1640 (Sigma-Aldrich, USA) to give the concentration range of 0.0625-32 mg/L. Aqueous solutions of the metal-free phen ligand and the simple metal salts, MnCl2, CuCl2, and AgNO3, were also screened over the same concentration range. Caspofungin (Sigma-Aldrich) was used as a classical antifungal agent able to block the growth of all clinical isolates of C. haemulonii species as previously reported by our research group (Ramos et al., [2015]). Water dilutions containing DMSO concentrations corresponding to those used to prepare the drug solutions were assessed in parallel. Untreated and compound-treated fungal cells were incubated at 37°C for 48 h and the minimal inhibitory concentration (MIC) was established as the lowest compound concentration where no cellular growth could be detected by visual inspection in accordance to the CLSI recommendation. The geometric mean of the MIC values (GM-MIC) of each compound against all the fungal isolates was calculated using the software, Microsoft Office Excel 2013.

[2] = tested on: Candida haemulonii var. vulnera; assay: as above; type: cell-based; conditions: for GM-MIC: geometric mean of three C. haemulonii var. vulnera isolates; for MIC: planktonic, 48 h, 37°C
Description: as §1, §2

Candida haemulonii [3] = assay: as above; type: cell-based; conditions: for GM-MIC: geometric mean of three C. haemulonii isolates; for MIC: planktonic, 48 h, 37°C
Description: as §1, §2

Candida duobushaemulonii [4] = assay: Biofilm-growing cells, XTT assay, bMIC; type: cell-based; conditions: for GM-bMIC: geometric mean, C. duobushaemulonii isolates; for bMIC: mature biofilm, 48 h, 50% inhibition of metabolic activity
Description: (§3) The effect of the compounds on biofilm-growing cells was determined using the previously described microtiter-based technique (Ramage et al., [2001]). The fungi (10^6 yeast cells) were incubated for 48 h at 37°C in 96-well polystyrene microtiter plates (Corning®, Corning Incorporated, USA) containing Sabouraud-dextrose broth to accommodate biofilm formation. Following biofilm formation, the culture medium was aspirated and non-adherent cells removed by thoroughly washing the wells three times with sterile PBS (0.15 M NaCl, 0.01 M phosphate buffer, pH 7.2). Afterwards, the compounds, at the same concentrations used in the planktonic assays, were added to the wells, and the plates were incubated for further 48 h at 37°C. The metabolic activity was then evaluated using a colorimetric assay that measures the metabolic reduction of 2,3-bis (2-methoxy-4-nitro-5-sulfophenyl)-5-[(phenylamino) carbonyl]-2H-tetrazolium hydroxide (XTT; Sigma-Aldrich) to a water-soluble, brown formazan product (Peeters et al., [2008]). The biofilm MIC (bMIC) for each compound was established as the minimal concentration capable of inhibiting 50% of metabolic activity when compared to compound-free wells (Ziccardi et al., [2015]).

[5] = tested on: Candida haemulonii var. vulnera; assay: Biofilm-growing cells, XTT assay, bMIC; type: cell-based; conditions: for GM-bMIC: geometric mean, C. haemulonii var. vulnera isolates; for bMIC: mature biofilm, 48 h, 50% inhibition of metabolic activity
Description: as §3

Candida haemulonii [6] = assay: Biofilm-growing cells, XTT assay, bMIC; type: cell-based; conditions: for GM-bMIC: geometric mean, C. haemulonii isolates, values marked * do not include LIP Ch4 (>512); for bMIC: mature biofilm, 48 h, 50% inhibition of metabolic activity
Description: as §3

C. haemulonii complex = assay: Planktonic growth, overall across all nine isolates; type: cell-based, Candida haemulonii complex; conditions: for Overall GM-MIC / MIC: geometric mean across all nine strains; for MIC: in μM, read-out: Overall GM-MIC
Description: as §1, §2

A549 cells = assay: Mammalian cell toxicity (MTT assay) and selectivity index; type: cell-based, Human
Description: as §1
The cytotoxicity was evaluated using the MTT [3-(4,5-dimethylthiazol-2-yl)-2,5-diphenyl tetrazolium bromide] (Sigma-Aldrich) assay (Mosmann, [1983]). A549 cells (10^4) were seeded into tissue culture plates (TPP, Switzerland) and cultured for 24 h at 37°C in a 5% CO2 in order to obtain cellular confluence. The wells were then washed twice with DMEM to remove non-adherent cells and the test compounds were added (in concentrations ranging from 0.0313 to 512 μg/mL) to plates containing DMEM, followed by a 48 h incubation period under the same conditions mentioned above. The cellular viability was evaluated by adding MTT to each well and incubating the plates in the dark for 3 h, allowing the viable cells containing active mitochondrial dehydrogenase enzymes to metabolize MTT-tetrazolium salt into purple formazan. The formazan crystals were then dissolved in DMSO (100 μL) and the absorbance (450 nm) measured using a Thermomax Molecular Device microplate reader. The concentration capable of reducing cellular viability by 50% (CC50) was calculated, and the selectivity index (SI) determined using the following equation: A549 CC50/C. haemulonii complex GM-MIC.

[7] = tested on: Candida haemulonii complex; assay: Biofilm-growing cells, overall across isolates; type: cell-based; conditions: for Overall GM-bMIC: geometric mean across strains, values marked * do not include LIP Ch4 (>512)
Description: as §3

Molecule	GM-MIC (Candida duobushaemulonii [1]) [µg/mL]	MIC (Candida duobushaemulonii [1]; isolate LIP Ch1) [µg/mL]	MIC (Candida duobushaemulonii [1]; isolate LIP Ch6) [µg/mL]	MIC (Candida duobushaemulonii [1]; isolate LIP Ch8) [µg/mL]	GM-MIC [2] [µg/mL]	MIC ([2]; isolate LIP Ch5) [µg/mL]	MIC ([2]; isolate LIP Ch9) [µg/mL]	MIC ([2]; isolate LIP Ch11) [µg/mL]	GM-MIC (Candida haemulonii [3]) [µg/mL]	MIC (Candida haemulonii [3]; isolate LIP Ch4) [µg/mL]	MIC (Candida haemulonii [3]; isolate LIP Ch7) [µg/mL]	MIC (Candida haemulonii [3]; isolate LIP Ch12) [µg/mL]	GM-bMIC (Candida duobushaemulonii [4]) [mg/L]	bMIC (Candida duobushaemulonii [4]; isolate LIP Ch1) [mg/L]	bMIC (Candida duobushaemulonii [4]; isolate LIP Ch6) [mg/L]	bMIC (Candida duobushaemulonii [4]; isolate LIP Ch8) [mg/L]	GM-bMIC [5] [mg/L]	bMIC ([5]; isolate LIP Ch5) [mg/L]	bMIC ([5]; isolate LIP Ch9) [mg/L]	bMIC ([5]; isolate LIP Ch13) [mg/L]	further results
O=[N+]([O-])[O-].[Ag+] [AgNO3, reference compound]	0.63	0.5	0.5	1	0.5	0.5	0.5	0.5	0.79	1	0.5	1	32	16	16	128	40.32	128	64	8	GM-bMIC (Candida haemulonii [6]): 16^* mg/L; bMIC (Candida haemulonii [6]; isolate LIP Ch4): >512 mg/L; bMIC (Candida haemulonii [6]; isolate LIP Ch7): 8 mg/L; bMIC (Candida haemulonii [6]; isolate LIP Ch14): 32 mg/L; Overall GM-MIC (C. haemulonii complex): 0.63 µg/mL; MIC (C. haemulonii complex): 3.93 µM; effect on planktonic fungal growth/viability (in words) (C. haemulonii complex; nine clinical isolates, 0.0625-32 mg/L): appreciably deterred fungal growth; A549 (CC50) (A549 cells; MTT, 48 h incubation): 16.98 µg/mL; decrease in activity on going from planktonic to biofilm cells ([7]; biofilm MIC versus planktonic MIC): 43.8 fold; Overall GM-bMIC ([7]; in μM): 172 µM; Overall GM-bMIC [7]: 29.34 mg/L
{[Mn(3,6,9-tdda)(phen)2].3H2O.EtOH}n [compound 14]	3.17	4	4	2	2	2	2	2	2	2	2	2	10.08	16	4	16	8	16	4	8	GM-bMIC (Candida haemulonii [6]): 20.16 mg/L; bMIC (Candida haemulonii [6]; isolate LIP Ch4): 512 mg/L; bMIC (Candida haemulonii [6]; isolate LIP Ch7): 4 mg/L; bMIC (Candida haemulonii [6]; isolate LIP Ch14): 4 mg/L; Overall GM-MIC (C. haemulonii complex): 2.33 µg/mL; MIC (C. haemulonii complex): 3.15 µM; A549 (CC50) (A549 cells; MTT, 48 h incubation): 261.67 µg/mL; Overall GM-bMIC [7]: 11.76 mg/L
O.O.O.O.O.O=C([O-])c1ccccc1C(=O)[O-].[Mn+2].c1cnc2c(c1)ccc1cccnc12.c1cnc2c(c1)ccc1cccnc12 [compound 9, [Mn(ph)(phen)2(H2O)].4H2O]	2	2	2	2	2	2	2	2	2	2	2	2	5.04	16	4	2	6.35	16	4	4	GM-bMIC (Candida haemulonii [6]): 25.40 mg/L; bMIC (Candida haemulonii [6]; isolate LIP Ch4): 512 mg/L; bMIC (Candida haemulonii [6]; isolate LIP Ch7): 2 mg/L; bMIC (Candida haemulonii [6]; isolate LIP Ch14): 16 mg/L; Overall GM-MIC (C. haemulonii complex): 2 µg/mL; MIC (C. haemulonii complex): 2.98 µM; A549 (CC50) (A549 cells): 259.34 µg/mL; Overall GM-bMIC ([7]; in μM): 13.93 µM; Overall GM-bMIC [7]: 9.33 mg/L
